Reference: patent US5260425A, “Anthracycline derivatives having cytostatic activity” (priority 1988, dated 1993)
Values after ≈ are worked out from the molar mass of the structure shown. Where two headings read alike, the source gives them in different places.

Tests used:
[1] = test system: L1210 mouse leukemia cells; test: Formation of colonies of L1210 leukemia cells in soft agar (cytotoxicity in vitro); format: cell-based; details: Mus musculus
Description: The cytostatic activity of the compounds according to the invention has been tested using L1210 mouse leukemia cells. Employed for this purpose was the formation of colonies of L1210 leukemia cells in agar plates. This method is used to detect the effect of the test substances on the growth behavior of the cells over 1 hour or over several generations. In this connection, with a cell cycle time of 10-12 hours about 14 consecutive generations are observed in the 7 days the test lasts. In this test, the substances having cytostatic activity according to the invention bring about a reduction in the number of colonies to be observed by comparison with an untreated control sample.
Procedure for determining the formation of colonies of L1210 leukemia cells in soft agar
500 leukemia cells per plate were incubated with various concentrations of the test substance at 37° C. for 1 hour. The cells were then washed twice with McCoy5A medium and finally, after addition of 0.3% agar, poured into Petri dishes. Controls were incubated only with fresh medium. In place of the incubation for one hour, in some cases various concentrations and test substances were mixed with the upper agar layer in order in this way to achieve continuous exposure of the cells throughout the incubation time. After the agar had solidified, the plates were incubated in an incubator at 37° C. for 7 days (5% by volume CO2, 95% relative humidity). The number of colonies which had been produced with a diameter of more than 60 μm was then counted. The results have been reported as the number of colonies in treated agar plates as a percentage of the untreated control. The IC50 was determined as a measure of the activity of the substance from the dose-effect plot obtained in this way. The results for the compounds described herein, by comparison with adriamycin, are compiled in Table 1.

[2] = Determination of the indicative toxicity; details: mouse, in vivo; 3xiv,q3d (three intravenous administrations, 3 days interval); survival day 14
L1210 leukemia = test: In vivo activity on L1210 leukemia of the mouse (antitumor activity T/C); details: Mus musculus; for response vs control in vivo at 2.8 mg/kg: dose 2.80 mg/kg
Description: Ascites fluid is removed from DBA2 mice (female, 18-20 g) under sterile conditions 7 days after inoculation of tumor cells. The ascites is washed three times with PBS (phosphate-buffered saline), counted and adjusted to a cell count of 10^6 in 0.2 ml of PBS.
10^6 cells, suspended in 0.2 ml of PBS, are then injected intraperitoneally into DBF1 mice (female, 18-20 g). 6 animals per group are used for each substance concentration and as controls.
a) The animals are weighed on days 1 and 5 after injection of the test substance. A weight loss of more than 20% on day 5 is regarded as an indicator of a toxic effect of the substance.
b) At the end of the experiment (death of all animals or surviving animals on day 60) the mean survival time of the animals in the particular groups is determined as long as at least 65% of the animals were still alive on day 5 of the experiment. The mean survival time is determined only for animals which die during the course of the experiment. Long-term survivors (LTS) are not included in this calculation and are reported separately.
The antitumor activity (T/C) for the particular substance concentration is determined from the mean survival time (MSTT) in the treated groups and in the control groups (MSTC) as a percentage of the untreated controls in accordance with the following formula: [formula]
The T/C values and the treatment regimen employed in each case are compiled in Table 3, together with the indicative toxicity. T/C values greater than 125% are regarded as an indicator of a significant antitumor activity of the test substance.

[3] = test system: sensitive and resistant L1210 leukemia cells; test: Proliferation test (MTT reduction), cross-resistance to doxorubicin/adriamycin in vitro; format: cell-based, mouse; details: for Cross-resistance to doxorubicin (in words): L1210, MTT, in vitro; for Degree of resistance of the cell / Cross-resistance to adriamycin (degree of cross-resistance): MTT, 3d; for Degree of resistance of the cell: IC50 resistant subline related to IC50 sensitive subline; for Cross-resistance to adriamycin (degree of cross-resistance): adriamycin = 100.0
Description: L1210, A 549 or HT 29 in the exponential phase of growth are incubated in a cell density of 5×10^3 cells/ml in RPMI 1640 in a 96-well microtiter plate with various concentrations of the test substance at 37° C., 5% CO2 and 95% relative humidity for 72 h. Control experiments receive merely growth medium in place of the test substance. Quadruplicate determinations are set up for each test substance and for the control. After incubation for 65 h, 50 μl of an MTT solution (2.5 mg/ml; MTT=3-(4,5-dimethylthiazol-2-yl)-2,5-diphenyltetrazoliumbromide) in phosphate-buffered saline) are added. MTT is reduced to a dark red insoluble formazan dyestuff in the presence of live cells. This reaction is complete after 7 h (L1210 cells) or after 24 h (A 549, HT 29 cells), and the supernatant medium is carefully removed by aspiration. The insoluble dyestuff is dissolved by addition of 100 μl of DMSO (dimethyl sulfoxide) and the extinction of the resulting solution at a wavelength of 492 nm is then measured for each well in a multiscan 340 CC photometer from Flow.
The ratio of the extinctions for treated and untreated cells provides a dose-effect plot from which the concentration which just kills 50% of the cells (IC50) can be read off. The coefficient of variation for repeat investigations is less than 15%.
The cross-resistance between the particular test compound and doxorubicin as standard compound is determined with the aid of the MTT test (see above for method) on sensitive and resistant L1210 leukemia cells.
The resistant cell line was established by incubation of a sensitive subline with the reference compound in concentrations which increased stepwise.
The IC50 of the test compound on the resistant subline related to the IC50 of the sensitive subline provides both the degree of resistance for the test Compound (DR(T)) and that for the reference compound (DR(R)) in accordance with the formula [formula]
In addition, the degree of cross-resistance (DCR) for the test compound is calculated in accordance with the formula [formula]
In the case where the loss of effect of the test compound on the resistant line in relation to the sensitive line is greater than that of the reference compound it is possible for the degree of cross-resistance to be above 100%.

[4] = Determination of the indicative toxicity; details: mouse, in vivo, ip; 3xip,q3d (three intraperitoneal administrations, 3 days interval); survival day 14
Description: To determine the indicative toxicity, NMRI mice receive an intraperitoneal injection of various doses of the test substance dissolved in 0.5 ml of 5% strength glucose solution on day 0. Control groups receive merely 0.5 ml of 5% strength glucose solution. 5 mice are used for each concentration of the test substance. The number of mice surviving on day 14 is determined, and from this the LD5, LD50 and LD95 are determined by the Litchfield-Wilcoxon method. The toxicity (LD50 (mg/kg)) of the compounds described here is summarized in Table 3 by comparison with adriamycin.

[5] = L1210, 168 h, read-out: IC50, continuous incubation, continuous incubation, 7 days, L1210 colonies in agar
[6] = L1210, read-out: IC50, 1 h incubation, 1 h incubation, then 7 days, L1210 colonies in agar
[7] = 168 h, continuous incubation, 7 days, L1210 colonies in agar, read-out: IC50, continuous incubation
[8] = 1 h incubation, then 7 days, L1210 colonies in agar, read-out: IC50, 1 h incubation
[9] = L1210, iv, read-out: T/C, L1210-leukemia in vivo

CC[C@@]1(O)C[C@H](O[C@H]2C[C@H](N(C)Cc3ccsc3)[C@H](O)[C@H](C)O2)c2c(O)c3c(c(O)c2[C@H]1O)C(=O)c1cccc(O)c1C3=O [Compound 12, 7-O-(3'-N-Methyl-3'-N-(3-thenyl)-alpha-L-daunosaminyl)-β-rhodomycinone]
IC50 [1, 5]: 0.032 µg/mL (≈ 0.0511 µM) | IC50 [1, 6]: 0.17 µg/mL (≈ 0.272 µM) | LD50 at 336 h [2]: 2 to 5 mg/kg

C#CCN(C)[C@H]1C[C@H](O[C@H]2C[C@](O)(CC)[C@H](O)c3c(O)c4c(c(O)c32)C(=O)c2c(O)cccc2C4=O)O[C@@H](C)[C@H]1O [Compound 2, 7-O-(3'-N-methyl-3'-N-proparayl-alpha-L-daunosaminyl)-β-rhodomycinone]
IC50 [1, 7]: 0.08 µg/mL (≈ 0.141 µM) | IC50 [1, 8]: 0.3 µg/mL (≈ 0.529 µM) | response vs control in vivo at 1.2 mg/kg (L1210 leukemia; L1210, iv, 3xiv,q3d, dose 1.20 mg/kg, % of the control): 144% | LD50 at 336 h [2]: 2 to 5 mg/kg

CC[C@@]1(O)C[C@H](O[C@H]2C[C@H](N(C)CC3CO3)[C@H](O)[C@H](C)O2)c2c(O)c3c(c(O)c2[C@H]1O)C(=O)c1c(O)ccc(O)c1C3=O (stereo partly drawn) [Compound 14m, 7-O-(3'-N-Glycidyl-3'-N-methyl-alpha-L-daunosaminyl)-β-isorhodomycinone]
IC50 [1, 5]: 0.005 µg/mL (≈ 0.00831 µM) | IC50 [1, 6]: 0.0024 µg/mL (≈ 0.00399 µM) | response vs control in vivo at 0.13 mg/kg (L1210 leukemia; [9]): 104% | LD50 at 336 h [2]: 0.3 to 0.75 mg/kg

CC[C@@]1(O)C[C@H](O[C@H]2C[C@H](N(C)Cc3ccco3)[C@H](O)[C@H](C)O2)c2c(O)c3c(c(O)c2[C@H]1O)C(=O)c1cccc(O)c1C3=O [Compound 6, 7-O-(3'-N-(2-Furfuryl)-3'-N-methyl-alpha-L-daunosaminyl)-β-rhodomycinone]
IC50 [1, 7]: 0.03 µg/mL (≈ 0.0492 µM) | IC50 [1, 8]: 0.038 µg/mL (≈ 0.0623 µM) | Cross-resistance to doxorubicin (in words) [3]: not cross-resistant to doxorubicin | Degree of resistance of the cell [3]: 2.0 | Cross-resistance to adriamycin (degree of cross-resistance) [3]: 2.0% | LD50 at 336 h [4]: 1 to 5 mg/kg | response vs control in vivo at 2.8 mg/kg (L1210 leukemia; L1210, ip, 3xip,q3d, % of the control): 141% | response vs control in vivo at 2.8 mg/kg (L1210 leukemia; L1210, iv, 3xiv,q3d, % of the control): 129%

C=CCN(C)[C@H]1C[C@H](O[C@H]2C[C@](O)(CC)[C@H](O)c3c(O)c4c(c(O)c32)C(=O)c2c(O)cccc2C4=O)O[C@@H](C)[C@H]1O [Compound 1, 7-O-(3'-N-Allyl-3'-N-methyl-alpha-L-daunosaminyl)-β-rhodomycinone]
IC50 [1, 5]: 0.01 µg/mL (≈ 0.0176 µM) | IC50 [1, 6]: 0.08 µg/mL (≈ 0.14 µM) | Cross-resistance to doxorubicin (in words) [3]: not cross-resistant to doxorubicin | Degree of resistance of the cell [3]: 10.0 | Cross-resistance to adriamycin (degree of cross-resistance) [3]: 19.0% | LD50 at 336 h [4]: 1 to 5 mg/kg | response vs control in vivo at 1.19 mg/kg (L1210 leukemia; L1210, ip, read-out: T/C, L1210-leukemia in vivo): 200% | response vs control in vivo at 1 mg/kg (L1210 leukemia; [9]): 146%
